From patent publication US20230277553A1, “THERAPEUTIC COMPOSITION OF CURE-PRO COMPOUNDS FOR TARGETED DEGRADATION OF BET DOMAIN PROTEINS, AND METHODS OF MAKING AND USAGE” (CORNELL UNIVERSITY, priority 2020, published 2023)
Entries after “also recorded” stand apart in the source; their conditions may differ.

Columns and labels:
Format in all cases: cell-based
BRD4 [1] = target: T1, BRD4 (Homo sapiens, UniProt O60885); assay: CURE-PRO-mediated BRD4 degradation with MDM2 ligands, WES (ProteinSimple), HCT116 cells; parameters: endogenous in cells; details: HCT116, 24 h, WES; for BRD4 degradation, in combination with MDM2 ligand 8310: 1:1 with 8310, 10 μM; for BRD4 degradation, in combination with MDM2 ligand 8312: 1:1 with 8312, 10 μM
Procedure: All cell lines were purchased from ATCC or DSMZ and grown at 37° C. with 5% CO2. Human HeLa cells were cultured in complete growth medium (Dulbecco's modified Eagle's medium (DMEM) supplemented with 10% FBS); MCF7 cells were cultured in complete growth medium (Dulbecco's modified Eagle's medium (DMEM) supplemented with 10% FBS and 0.01 mg/ml human recombinant insulin (Sigma Aldrich); Namalwa and MOLM-13 cells were cultured in complete growth medium (RPMI 1640 medium supplemented with 10% FBS); MV-4-11 were cultured in complete growth medium (Iscove's Modified Dulbecco's medium, supplemented with 10% FBS); HCT116 cells were cultured in complete growth medium (McCoy's 5a Medium supplemented with 10% FBS). For cellular degradation of BRD4 studies, cells were seeded in a 12-well plate at 70-80% confluency, allowed to attach overnight, and incubated with the indicated compounds for the indicated time. When indicated, a 15-minute pretreatment with 10 μM pomalidomide, 10 μM VHL298, 10 μM Nutlin3a, 1 μM MG-132 or 1 μM Carfilzomib was performed before the addition of CURE-PROs. For washout studies, after CURE-PRO treatment, media was aspirated and incubated with complete medium for the indicated time before lysis.
WES Simple analysis was performed on WES system (ProteinSimple-Biotechne) according to the manufacturer's instructions. Total protein concentrations of cell lysates were determined by the Pierce BCA kit (Thermo Fisher). 3 μL of 0.3 μg/μL of the protein lysate was loaded onto a 12- to 230-kDa WES assay plate (ProteinSimple) where 300 nL sample was withdrawn through a capillary, subjected to electrophoretic separation of proteins by size, and followed by the simultaneous, HRP-based detection of proteins using the Anti-Rabbit Detection Module (Proteinsimple: #DM-001). The electropherograms were checked then the automatic peak detection was manually corrected if it was required.
HCT116 cells (3×10^6) were treated for 24 hours with the compounds solubilized in DMSO. Compounds were added at 1 μM-10 μM each. Standardized protein samples were electrophoresed and imaged as described in the WES ProteinSimple section above. FIGS. 59, 60, and 61 depict the concentration-dependence of CURE-PRO-mediated BRD4 degradation using MDM2 ligands.
HCT116 cells (3×10^6) were treated for 24 hours with the compounds solubilized in DMSO. Compounds were added at 1 μM-10 μM each. Standardized protein samples were electrophoresed and imaged as described in the WES ProteinSimple section above. FIGS. 62 and 63 depict the concentration-dependence of CURE-PRO-mediated BRD4 degradation using MDM2 ligands.
HCT116 cells (3×10^6) were treated for 24 hours with the compounds solubilized in DMSO. CURE-PRO monomers were added at 10 μM each and the proteasomal inhibitors at 1 μM. Standardized protein samples were electrophoresed and imaged as described in the WES ProteinSimple section above. FIG. 68 depicts the dependence of the proteasome for CURE-PRO-mediated BRD4 degradation.

BRD4 [2] = target: T1, BRD4; assay: Summary of BRD4 degradation by CURE-PRO pairs, estimated from Western Blot or WES (Proteinsimple); parameters: endogenous in cells; details: for Degradation of BRD4 in combination with MDM2 ligand [drawing 423] / Degradation of BRD4 in combination with MDM2 ligand [drawing 424]: Table 5, aryl-boronic acid-containing MDM2 ligand; for Degradation of BRD4 in combination with MDM2 ligand [drawing 423]: first drawing (8310); for Degradation of BRD4 in combination with MDM2 ligand [drawing 424]: second drawing (8312)
Description: A black check mark indicates efficacy of 30% to 70% or higher protein degradation.

BRD3 = target: T2, BRD3 (Homo sapiens, UniProt Q15059); assay: CURE-PRO-mediated BRD3 degradation with MDM2 ligands, Western blot, HCT116 cells; details: HCT116, 24 h, 1:1, 10 μM
T2 construct: endogenous in cells; host or cells: HCT116
T2 sequence (Q15059 whole entry): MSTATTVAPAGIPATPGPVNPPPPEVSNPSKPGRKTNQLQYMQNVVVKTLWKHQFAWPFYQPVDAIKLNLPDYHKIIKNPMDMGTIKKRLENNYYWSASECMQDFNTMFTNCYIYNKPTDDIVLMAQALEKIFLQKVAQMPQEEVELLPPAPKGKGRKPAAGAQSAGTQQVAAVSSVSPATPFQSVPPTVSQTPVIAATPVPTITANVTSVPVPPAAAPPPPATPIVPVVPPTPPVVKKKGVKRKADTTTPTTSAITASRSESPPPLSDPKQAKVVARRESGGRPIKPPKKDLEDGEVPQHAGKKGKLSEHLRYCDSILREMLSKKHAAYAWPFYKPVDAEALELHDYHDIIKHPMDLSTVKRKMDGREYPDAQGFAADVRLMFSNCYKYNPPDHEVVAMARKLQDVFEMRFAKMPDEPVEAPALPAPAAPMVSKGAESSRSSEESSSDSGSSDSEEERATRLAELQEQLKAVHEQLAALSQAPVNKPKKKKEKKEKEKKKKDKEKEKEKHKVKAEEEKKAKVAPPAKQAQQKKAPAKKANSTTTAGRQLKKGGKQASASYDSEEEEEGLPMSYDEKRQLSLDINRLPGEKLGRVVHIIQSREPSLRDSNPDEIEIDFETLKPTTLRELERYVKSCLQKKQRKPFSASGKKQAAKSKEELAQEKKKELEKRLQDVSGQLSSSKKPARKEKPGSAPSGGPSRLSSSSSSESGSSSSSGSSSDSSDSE
Description: (§1) Anti-BRD4 (13440, 1:1,000 dilution for Western Blot and 1:25 dilution for ProteinSimple); Anti-BRD2 (5848 1:1,000 dilution for Western Blot and 1:25 dilution for ProteinSimple); β-Actin (3700, 1:2,000 dilution for Western Blot), β-Actin (4970, 1:50 dilution for ProteinSimple) anti-mouse IgG-HRP, and anti-rabbit IgG-HRP antibodies were purchased Cell Signaling Technology. Anti-GAPDH (600-401-A33, 1:100 dilution for ProteinSimple) was purchased from Rockland Immunochemicals, Inc. Anti-BRD3 (sc-81202, 1:200 dilution for Western Blot) was purchased from Santa Cruz Biotechnology.
(§2) HeLa, MCF7, or HCT116 cells (2.5-3×10^6) were treated for 24 hours with the indicated compounds solubilized in DMSO. The cells were washed in ice-cold PBS and were then lysed in RIPA lysis buffer (150 mM NaCl, 5 mM EDTA, 1% NP-40, 0.5% sodium deoxycholate, 0.1% SDS, 50 mM Tris, pH 8.0.) with Roche protease inhibitor complete cocktail and phosphatase inhibitors (10 mM sodium fluoride, 10 mM sodium pyrophosphate, 1 mM sodium orthovanadate and 20 mM β-glycerophosphate). The total protein concentrations were determined by Bradford Protein Assay and 10-20 μg of protein was loaded onto 4-15% Tris-Glycine gradient gels (Biorad). […] Signal was detected with ECL Western Blotting Substrate (Pierce) and X-ray film processed with a Konica SRX-101 X-ray film processor or captured by Bio-Rad's Chemidoc Imaging system. […]

BRD2 = target: T3, BRD2 (Homo sapiens, UniProt P25440); assay: CURE-PRO-mediated BRD2 degradation with MDM2 ligands, Western blot, HCT116 cells; details: HCT116, 24 h, 1:1, 10 μM
T3 construct: endogenous in cells; host or cells: HCT116
T3 sequence (P25440 whole entry): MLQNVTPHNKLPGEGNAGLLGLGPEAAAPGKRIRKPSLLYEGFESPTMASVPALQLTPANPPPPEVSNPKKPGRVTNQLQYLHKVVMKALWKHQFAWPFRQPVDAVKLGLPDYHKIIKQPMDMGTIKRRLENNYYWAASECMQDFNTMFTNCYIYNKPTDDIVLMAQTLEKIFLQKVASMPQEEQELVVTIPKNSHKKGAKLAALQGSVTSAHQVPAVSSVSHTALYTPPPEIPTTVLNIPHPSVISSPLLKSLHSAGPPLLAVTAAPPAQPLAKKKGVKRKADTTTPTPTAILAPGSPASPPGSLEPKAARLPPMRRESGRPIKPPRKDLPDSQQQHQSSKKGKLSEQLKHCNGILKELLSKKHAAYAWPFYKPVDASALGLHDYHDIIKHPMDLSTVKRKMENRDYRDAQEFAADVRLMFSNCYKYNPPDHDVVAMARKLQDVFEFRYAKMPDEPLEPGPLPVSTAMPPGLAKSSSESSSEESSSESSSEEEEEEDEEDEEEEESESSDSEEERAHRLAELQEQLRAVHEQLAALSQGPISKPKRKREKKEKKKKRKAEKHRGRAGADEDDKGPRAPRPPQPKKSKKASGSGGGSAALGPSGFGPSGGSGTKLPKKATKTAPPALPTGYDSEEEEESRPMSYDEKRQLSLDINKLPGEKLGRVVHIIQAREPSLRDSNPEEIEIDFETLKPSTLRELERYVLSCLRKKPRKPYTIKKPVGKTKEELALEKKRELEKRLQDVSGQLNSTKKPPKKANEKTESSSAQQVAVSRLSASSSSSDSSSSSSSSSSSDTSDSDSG
Description: as §1, §2

| Structure (SMILES) | BRD4 degradation, in combination with MDM2 ligand 8313 (BRD4 [1]; 1:1 with 8313, 1-10 μM each) | BRD4 degradation, in combination with MDM2 ligand 8314 (BRD4 [1]; 1:1 with 8314, 1-10 μM each) | Degradation of BRD4 in combination with CRBN ligand [drawing 372] (BRD4 [2]; Table 1, CRBN ligand, third drawing (8066)) | Degradation of BRD4 in combination with CRBN ligand [drawing 370] (BRD4 [2]; Table 1, aromatic 1,2-diol- or hindered cis-1,2-diol-containing CRBN ligand, first drawing (8046)) | Degradation of BRD4 in combination with VHL ligand [drawing 397] (BRD4 [2]; Table 3, aromatic 1,2-diol-containing VHL ligand, second drawing (8305)) | BRD4 degradation, in combination with MDM2 ligand 8310 (BRD4 [1]) | BRD4 degradation, in combination with MDM2 ligand 8312 (BRD4 [1]) | Degradation of BRD4 in combination with MDM2 ligand [drawing 423] (BRD4 [2]) | Degradation of BRD4 in combination with MDM2 ligand [drawing 424] (BRD4 [2]) | BRD3 degradation, in combination with MDM2 ligands 8310 and 8312 (BRD3) | BRD2 degradation, in combination with MDM2 ligands 8310 and 8312 (BRD2) | Degradation of BRD4 in combination with CRBN ligand [drawing 407] (BRD4 [2]; Table 4, aryl-boronic acid-containing CRBN ligand, first drawing (by text: 8048)) |
| --- | --- | --- | --- | --- | --- | --- | --- | --- | --- | --- | --- | --- |
| CCNC(=O)C[C@@H]1N=C(c2ccc(Cl)cc2)c2cc(OCCCCC(=O)Nc3cccc(B(O)O)c3)ccc2-n2c(C)nnc21 [BRD-E20, (3-(5-(((4S)-6-(4-chlorophenyl)-4-(2-(ethylamino)-2-oxoethyl)-1-methyl-4H-benzo[f][1,2,4]triazolo[4,3-a][1,4]diazepin-8-yl)oxy)pentanamido)phenyl)boronic acid] | had no effect on BRD4 protein levels | caused partial loss of the BRD4 protein; also recorded: Degradation is observed | ✓ (A black check mark indicates efficacy of 30% to 70% or higher protein degradation) | ✓ (A black check mark indicates efficacy of 30% to 70% or higher protein degradation) | ✓ (A black check mark indicates efficacy of 30% to 70% or higher protein degradation) | – | – | – | – | – | – | – |
| CCNC(=O)C[C@@H]1N=C(c2ccc(Cl)cc2)c2cc(OCCNC(=O)c3cccc(O)c3O)ccc2-n2c(C)nnc21 [BRD-N25] | – | – | – | – | – | caused BRD4 degradation; also recorded: marked BRD4 degradation | caused BRD4 degradation | ✓ (A black check mark indicates efficacy of 30% to 70% or higher protein degradation) | ✓ (A black check mark indicates efficacy of 30% to 70% or higher protein degradation) | degradation of BRD3; also recorded: Degradation is evident | BRD2 to a lesser extent; also recorded: Degradation is evident | – |
| CCNC(=O)C[C@@H]1N=C(c2ccc(Cl)cc2)c2cc(OCCOCCNC(=O)c3cccc(O)c3O)ccc2-n2c(C)nnc21 [BRD-N39, N-(2-(2-(((4S)-6-(4-chlorophenyl)-4-(2-(ethylamino)-2-oxoethyl)-1-methyl-4H-benzo[f][1,2,4]triazolo[4,3-a][1,4]diazepin-8-yl)oxy)ethoxy)ethyl)-2,3-dihydroxybenzamide] | – | – | – | – | – | caused BRD4 degradation | caused BRD4 degradation | ✓ (A black check mark indicates efficacy of 30% to 70% or higher protein degradation) | ✓ (A black check mark indicates efficacy of 30% to 70% or higher protein degradation) | degradation of BRD3; also recorded: Degradation is evident | BRD2 to a lesser extent; also recorded: Degradation is evident | ✓ (A black check mark indicates efficacy of 30% to 70% or higher protein degradation) |
